{
  "source": "paper PMC11445708",
  "about": "(Dalton transactions (Cambridge, England : 2003), 2024)",
  "tested_on": "mouse neuroblastoma N2a cells",
  "test": "Rescue of Aβ42-induced neurotoxicity in N2a cells",
  "type": "cell-based",
  "conditions": "N2a cells treated with Aβ42 and compound",
  "data": [
    {"smiles": "COc1cc(/C=C/C(=O)CC(=O)/C=C/c2ccc(O)c(OC)c2)ccc1O", "note": "[curcumin]", "values": [
      {"measurement": "effect on Aβ42-induced neurotoxicity", "value": "dramatically increased the Aβ-induced cytotoxicity"}
    ]}
  ]
}
